Legend:
[1] = system: Balb/c 3T3 cells; experiment: NRU assay (lysosomal activity), Balb/c 3T3; format: cell-based, mouse; settings: for IC50: Balb/c 3T3, 72 h exposure, mean (n = 3) ± SEM, read-out: Inhibitory concentration IC50, NRU
Description: (§1) Data obtained from the measurement of the optical density in these assays were transformed to percentages in relation to the control group, considered to be 100% for the MTT, NRU, and TPC assays and 0% for the LDH assay (Figure 1).
(§2) The human hepatoma cell line (HepG2) was purchased from the American Type Culture Collection (ATCC HB-8065). These cells were cultured in Minimum Essential Medium Eagle (MEME) (ATCC). The murine fibroblast cell line (Balb/c 3T3 clone A31) (gift from Department of Swine Diseases of the National Veterinary Research Institute in Pulawy) was cultured in Dulbecco’s Modified Eagle’s Medium (DMEM) (ATCC). The media were supplemented with 10% BCS (Balb/c 3T3), 10% FBS (HepG2), 1% L-glutamine, and 1% antibiotic solution. The cells were maintained in 75 cm^2 cell culture flasks (Nunc, Roskilde, Denmark) in a humidified incubator, NuAire (Plymouth, MN, USA) at 37 °C, in an atmosphere of 5% CO2. The medium was refreshed every two or three days and the cells were trypsinized by 0.25% trypsin–0.02% EDTA after reaching 70–80% confluence. Single cell suspensions were prepared and adjusted to a density of 2 × 10^5 cells/mL (HepG2) and 5 × 10^4 cells/mL (Balb/c 3T3). The cell suspension was transferred to 96-well plates (100 µL/well) and incubated for 24 h before the exposure to the study compounds.
(§3) The concentration ranges of compounds were chosen according to their solubility and their plasma level. Each compound was dissolved in DMSO. The final concentration of DMSO was 0.1% in the medium. The same final concentrations of the solvent and the 1% Trition-X 100 solution were used as the negative and positive controls, respectively. […] All compound solutions in the medium were freshly prepared and protected from light. […] The concentration range was selected on the basis of results from previous studies. Each concentration was tested in six replicates with three independent experiments. Cytotoxicity was assessed after 72 h of exposure of the cells to the compounds. The medium was not changed during the incubation time.
(§4) The assay, based on the staining of living cells by neutral red, was performed according to the protocol described by Borenfreund and Puerner. After incubation, the medium containing the compound was removed and the cells were washed with PBS. Then, a 100 µL/well of NR solution (50 µg/mL) was added for 3 h. After that time, the cells were washed with PBS. The dye from viable cells was released by extraction with a mixture of acetic acid, ethanol, and water. After 10 min of shaking, the absorbance of the dissolved NR was measured at 540 nm in a microplate reader (LabSystems Multiskan RC, Thermo Fisher Scientific, Waltham, MA, USA) using a blank as a reference. Cytotoxicity was expressed as a percentage of the negative control (0.1% DMSO).
(§5) The results of the tests were expressed as a mean ± SD. The experiments were performed in three independent repetitions. Statistical analysis was performed using GraphPad Prism 5 (San Diego, CA, USA). One-way analysis of variance (ANOVA) followed by Dunnett’s post-hoc test was applied. The 50% inhibition (cytotoxicity) concentrations (IC50) were derived from the dose–response curve plotted with the concentration of the compound (X-axis) vs. cell viability percent (Y-axis). The IC50 values were calculated by GraphPad Prism 5 software (San Diego, CA, USA). Statistical comparisons among IC50 values were performed by the analysis of variance (ANOVA) followed by the Tukey test. Values of p ≤ 0.05 were considered statistically significant.

[2] = system: Balb/c 3T3 cells; experiment: TPC assay (total protein content), Balb/c 3T3; format: cell-based, mouse; settings: for IC50: Balb/c 3T3, 72 h exposure, mean (n = 3) ± SEM, read-out: Inhibitory concentration IC50, TPC
Description: as §1, §2, §3
(§6) The assay was based upon staining total cellular protein (proliferation). After incubation, the medium containing the compound was removed and 100 µL of Coomassie Brilliant Blue R-250 dye were added to each well. The plate was shaken for 10 min. Then, the stain was removed and the cells were rinsed twice with 100 µL of washing solution (glacial acetic acid/ethanol/water). After that, a 100 µL portion of the desorbing solution (1 M potassium acetate) was added and plates were shaken again for 10 min. The absorbance was measured at 595 nm in a microplate reader (LabSystems Multiskan RC, Thermo Fisher Scientific, Waltham, MA, USA) using a blank as a reference. Cytotoxicity was expressed as a percentage of the negative control (0.1% DMSO).
as §5

[3] = system: HepG2 cells; experiment: Leakage LDH assay (cellular membrane integrity), HepG2; format: cell-based, human; settings: for IC50: HepG2, 72 h exposure, mean (n = 3) ± SEM, read-out: Inhibitory concentration IC50, LDH
Description: as §1, §2, §3
(§7) The integrity of the plasma membrane was assessed using the test of lactate dehydrogenase (LDH) release, which was monitored using the commercially available Cytotoxicity Detection Kit (LDH) (Roche Diagnostics, Warsaw, Poland). The medium (100 µL/well) without cells was transferred into the corresponding wells of an optically clear 96-well flat bottom microplate and a 100 µl reaction mixture was added to each well. Then, the plates were incubated for 30 min at room temperature in darkness. After that time, a 50 µL/well 1 M HCl was added to stop the reaction. The absorbance was measured at 492 nm in a microplate reader (LabSystems Multiskan RC, Thermo Fisher Scientific, Waltham, MA, USA) using a blank as a reference.
as §5

[4] = system: murine melanoma (B16) cell line; parameters: method as in PMID 26828469; settings: cited from earlier work
[5] = system: HepG2 cells; experiment: NRU assay (lysosomal activity), HepG2; format: cell-based, human; settings: for Lowest concentration with significant (p ≤ 0.05) inhibition of lysosomal activity (NRU): HepG2, 72 h, vs negative control 0.1% DMSO; for IC50: HepG2, 72 h exposure, mean (n = 3) ± SEM, read-out: Inhibitory concentration IC50, NRU
Description: as §1, §2, §3, §4, §5

[6] = system: MCF7 cells; parameters: method as in PMID 22832309; settings: 48 h incubation, cited from earlier work
[7] = system: Balb/c 3T3 cells; experiment: MTT assay (mitochondrial activity), Balb/c 3T3; format: cell-based, mouse; settings: for Lowest concentration with significant (p ≤ 0.05) inhibition of mitochondrial activity (MTT): Balb/c 3T3, 72 h, vs negative control 0.1% DMSO; for IC50: Balb/c 3T3, 72 h exposure, mean (n = 3) ± SEM, read-out: Inhibitory concentration IC50, MTT
Description: as §1, §2, §3
(§8) The metabolic activity of living cells was assessed by measuring the activity of dehydrogenases. After incubation of the cells with the compounds, a 10 μL portion of the MTT solution (5 mg/ml in PBS) was added to each well of the 96-well plates and incubated. After 3 h, the MTT solution was removed and the intracellular formazan crystals were dissolved in 100 µl DMSO. The plate was shaken for 15 min at room temperature and transferred to a microplate reader (LabSystems Multiskan RC, Thermo Fisher Scientific, Waltham, MA, USA) to measure the absorbance at 570 nm, using blanks as a reference. Cytotoxicity was expressed as a percentage of the negative control (0.1% DMSO).
as §5

[8] = system: HepG2 cells; experiment: TPC assay (total protein content), HepG2; format: cell-based, human; settings: for Lowest concentration with significant (p ≤ 0.05) decrease of total protein content (TPC): HepG2, 72 h, vs negative control 0.1% DMSO; for IC50: HepG2, 72 h exposure, mean (n = 3) ± SEM, read-out: Inhibitory concentration IC50, TPC
Description: as §1, §2, §3, §6, §5

[9] = system: HepG2 cells; experiment: MTT assay (mitochondrial activity), HepG2; format: cell-based, human; settings: for IC50: HepG2, 72 h exposure, mean (n = 3) ± SEM, read-out: Inhibitory concentration IC50, MTT
Description: as §1, §2, §3, §8, §5

[10] = system: Balb/c 3T3 cells; experiment: Leakage LDH assay (cellular membrane integrity), Balb/c 3T3; format: cell-based, mouse; settings: for IC50: Balb/c 3T3, 72 h exposure, mean (n = 3) ± SEM, read-out: Inhibitory concentration IC50, LDH
Description: as §1, §2, §3, §7, §5

[11] = system: A549 (lung) cells; settings: 72 h exposure; cited from earlier work
[12] = Balb/c 3T3, 72 h, vs negative control 0.1% DMSO
[13] = HepG2, 72 h, vs negative control 0.1% DMSO

With Cc1ncc([N+](=O)[O-])n1CCO [Metronidazole] the IC50 ([1]; Mus musculus, BALB/c3T3) was greater than 146 µM, the IC50 ([2]; Mus musculus, BALB/c3T3) was greater than 146 µM and the IC50 ([3]; Homo sapiens) was greater than 146 µM. The “Cytotoxicity in B16 cell line” value ([4]; same observation as in this study) was “poorly cytotoxic”, the “Lowest concentration with significant (p ≤ 0.05) inhibition of lysosomal activity (NRU)” value [5] was 146 µM and the IC50 ([5]; Homo sapiens) was greater than 146 µM. The “Inhibition of MCF7 cells” value ([6]; 250 µM) was 30%, the “Cytotoxicity in MCF7 cells” value ([6]; concentration range 2.5 to 250 µM) was “not cytotoxic” and the “Lowest concentration with significant (p ≤ 0.05) inhibition of mitochondrial activity (MTT)” value [7] was 36 µM. For the same molecule, the IC50 ([7]; Mus musculus, BALB/c3T3) was greater than 146 µM, the “Lowest concentration with significant (p ≤ 0.05) decrease of total protein content (TPC)” value [8] was 8.8 µM and the IC50 ([8]; Homo sapiens) was greater than 146 µM. It also gave an IC50 ([9]; Homo sapiens) greater than 146 µM and an IC50 ([10]; Mus musculus, BALB/c3T3) greater than 146 µM.
With O=[N+]([O-])[O-].[Ag+] [Silver nitrate] the “Lowest concentration with significant (p ≤ 0.05) inhibition of lysosomal activity (NRU)” value [1, 12] was 2.2 µM, the IC50 [1] was 2.94 ± 1.06 µM and the “Lowest concentration with significant (p ≤ 0.05) decrease of total protein content (TPC)” value [2, 12] was 2.2 µM. For the same molecule, the IC50 [2] was 2.59 ± 1.3 µM, the “Lowest concentration with significant (p ≤ 0.05) disintegration of the cellular membrane (LDH)” value [3, 13] was 4.4 µM and the IC50 [3] was 3.47 ± 0.24 µM. For the same molecule, the IC50 ([4]; 72 h incubation) was 9.74 µM, the “Lowest concentration with significant (p ≤ 0.05) inhibition of lysosomal activity (NRU)” value [5] was 4.4 µM and the IC50 [5] was 6.18 ± 1.41 µM. For the same molecule, the IC50 [11] was 13.5 µM, the “Lowest concentration with significant (p ≤ 0.05) inhibition of mitochondrial activity (MTT)” value [7] was 2.2 µM and the IC50 [7] was 2.13 ± 0.88 µM. For the same molecule, the “Lowest concentration with significant (p ≤ 0.05) decrease of total protein content (TPC)” value [8] was 8.8 µM, the IC50 [8] was 60.3 ± 8.1 µM and the “Lowest concentration with significant (p ≤ 0.05) inhibition of mitochondrial activity (MTT)” value [9, 13] was 4.4 µM. For the same molecule, the IC50 [9] was 6.48 ± 1.6 µM, the “Lowest concentration with significant (p ≤ 0.05) disintegration of the cellular membrane (LDH)” value [10, 12] was 2.2 µM and the IC50 [10] was 3.12 ± 0.06 µM.
